# Measured values published in patent US20260355239A1, “COMBINATION OF A T CELL THERAPY AND CONTINUOUS OR INTERMITTENT DGK INHIBITOR DOSING” (Juno Therapeutics, Inc., priority 2022, published 2026).
# Tests used:
# [1] = system: CD19-antigen expressing target cells (K562.CD19, Granta-519, Raji); experiment: CAR-T cell cytolytic function in co-culture; type: cell-based, human; settings: 2.5:1 effector:target, compound present during co-culture
# Description: (§1) T cell compositions containing T cells expressing an exemplary anti-CD19 CAR were generated from leukapheresis samples from two healthy human adult donors by a process that included immunoaffinity-based selection of T cells by separately selecting CD4+ and CD8+ cells from the samples, resulting in two compositions enriched for CD4+ and CD8+ cells, respectively, per donor. Cells of the enriched CD4+ and CD8+ compositions were separately activated with anti-CD3/anti-CD28 beads and subjected to lentiviral transduction with a vector encoding an anti-CD19 CAR. […]
# (§2) Prior to use, the cryopreserved CD4+ and CD8+ CAR-engineered cell compositions were thawed and combined at approximately a 1:1 CD4:CD8 ratio for each donor to prepare a combined CD4+ CAR+ and CD8+ CAR+ T cell composition. The effects of treatment with Compound 17 at various concentrations (0.1 nM, 1 nM, 10 nM, 100 nM, or 1000 nM) added at day 0 during stimulation of the combined CAR-T cell composition with a plate-bound CAR-specific anti-idiotypic antibody (see, e.g., WO2018/023100) or during co-culture with CD19-expressing cells was then assessed.
# The cytolytic function of T cells treated with Compound 17 was assessed following co-culture of the combined CAR-T cell composition with various CD19-expressing lymphoma cells at a 2.5:1 effector:target ratio in the presence of Compound 17. […]
# Human venous whole blood = experiment: Human Whole Blood IFN-γ Assay; type: cell-based; settings: anti-CD3 + anti-CD28, 24 h, normalized to 3 μM reference compound, read-out: INFg Whole Blood Normalized-Agonist EC50
# Method: 9. Human Whole Blood IFN-γ Assay
# Human venous whole blood (22.5 μL per well), obtained from healthy donors, was pre-treated with compounds for one hour at 37 °C in a humidified 95% air/5% CO2 incubator. The blood was stimulated with 2.5 μL anti-human CD3 and anti-CD28 mAb at a final concentration of 1 μg/mL each for 24 hours at 37 °C. IFN-γ in the supernatants was measured using AlphLISA kit (Cat #AL217).
# anti-CD19 CAR-T cells = experiment: CAR-T cell phenotype after acute stimulation (flow cytometry); type: cell-based, human
# Description: as §1, with “CAR. The anti-CD19 CAR contained an anti-CD19 single-chain variable fragment (scFv) derived from a murine antibody (variable region derived from FMC63), an immunoglobulin-derived spacer, a transmembrane domain derived from CD28, a costimulatory region derived from 4-1BB, and a CD3-zeta intracellular signaling domain.” for “CAR.”
# as §2
# Approximately 20,000 cells of the combined CAR-T cell composition were stimulated with 3 μg/ml or 30 μg/ml plate-bound CAR-specific anti-idiotypic antibody in the presence of Compound 17. After a 48-hour stimulation, T cells were surface stained with antibodies for various activation and differentiation markers and analyzed by flow cytometry for the percent of cells positive for the assessed markers (% positive) and for mean fluorescence intensity (MFI) of expression for the assessed markers. […]
# CAR-expressing T cells = experiment: Chronic stimulation assay, rescue treatment: tumor cell numbers, spheroid volume and cytokines during re-challenge of chronically stimulated CAR-expressing T cells (FIGS. 7A-8B); type: cell-based, human
# Description: FIGS. 7A-7B and 8A-8B show cytolytic activity and cytokine production during re-challenge in the presence of Compound 17 of chronically stimulated CAR-expressing T cells (rescue treatment).
# (§3) These observations were made using a chronic stimulation assay to render T cells (e.g. CAR T cells) hypofunctional (e.g. reduced cytolysis and IL-2 secretion). Using this model, engineered T cells (e.g. CAR T cells or eTCR T cells) were examined to assess impact of DGKi, such as Compound 17, on function of the engineered T cells when present during (concurrent) or following (rescue) exposure to conditions leading to a hypofunctional, exhaustive state.
# [2] = system: anti-CD19 CAR-T cells with A549.CD19 and Granta-519 tumor spheroids; experiment: Cytokine production of chronically stimulated, concurrently treated CAR-T cells, 3D spheroids; type: cell-based, human; settings: concurrent treatment during chronic stimulation, five days
# Method: To simulate conditions of chronic stimulation, approximately 20,000 anti-CD19 CAR-expressing T cells of a combined CAR-T cell composition produced as described in Example 2 from two healthy adult donors were incubated with 30 µg/mL of plate-bound CAR-specific anti-idiotypic antibody (see, e.g., WO2018/023100) at 37 °C for a period of seven days. During this seven-day period, engineered CAR T cells were concurrently treated with Compound 17(0.1-1000 nM) or a vehicle control added at day 0.
# To further assess activity of chronically stimulated cell, the chronically stimulated CAR-T cells that had been concurrently treated with DGKi were incubated with A549 CD19+ tumor spheroids or Granta-519 tumor spheroids to rechallenge the CAR-T cells at an effector to target ratio of 1:2 for up to 14 days. The tumor spheroids were engineered to express a red fluorescent dye to permit monitoring of tumor cell lysis by microscopy during the assay.
# Supernatant was collected at day 5 from the above tumor spheroid cultures with chronically stimulated CAR-expressing T cells. Cytokine production was measured from the supernatant by meso scale discovery (MSD) analysis of the collected cell supernatants. […] Duplicate values for cell compositions manufactured from the two different healthy donors are shown.
# T cells = experiment: T cell function and exhaustion of engineered T cells in presence of DGKi (summary of observations); type: cell-based, human
# Description: In some aspects, the provided methods enhance or modulate proliferation and/or activity of T cell activity associated with administration of the T cell therapy (e.g. CAR-expressing T cells).
# Thus, while in some cases agents that increase or potentiate T cell activity may drive the cells to an exhausted state, it is found herein that activity of such DGKi, e.g., Compound 17, to exert a potentiating effect on T cell activity is decoupled from T cell exhaustion. In some embodiments, the provided methods involving compound administration of such DGKi, e.g., Compound 17, is capable of potentiating activity of T cells and delaying, limiting, reducing, inhibiting or preventing exhaustion.
# as §3
# [3] = 48-hour stimulation, 3 or 30 μg/mL CAR-specific anti-idiotypic antibody
smiles,measurement,setting,value
"CC[C@H]1CN([C@@H](CC)c2ccc(C(F)(F)F)cc2)[C@H](CC)CN1c1nc(=O)n(C)c2ccc(C#N)nc12 [Compound 17, 4-((2S,5R)-2,5-diethyl-4-((S)-1-(4-(trifluoromethyl)phenyl)propyl)piperazin-1-yl)-1-methyl-2-oxo-1,2-dihydropyrido[3,2-d]pyrimidine-6-carbonitrile]",cytolytic function (specific lysis),[1],did not affect cytolytic function
same,EC50,Human venous whole blood,20 nM
same,expression of CD27 and CD62L,anti-CD19 CAR-T cells; [3],decreased expression of CD27 and CD62L
same,expression of CD69 and PD-1,anti-CD19 CAR-T cells; [3],increased expression of CD69 and PD-1
same,"effect on cell phenotype, dose dependence",anti-CD19 CAR-T cells; in particular 30 μg/mL CAR-specific anti-idiotypic antibody,dose-dependent
same,recovery of activity of exhausted T cells,CAR-expressing T cells; chronically stimulated T cells exhibiting features of exhaustion,able to recover activity or have their activity restored or partially restored
same,rescue of T cell function of exhausted T cells,"CAR-expressing T cells; rescue treatment, later exposure","could rescue or restore T cell function, including cytokine production and cytolytic activity, of exhausted T cells"
same,"production of IFNγ, IL-2 and TNFα",[2],dose-dependent increase in production of all three cytokines
same,"T cell function (cytokine production, cytotoxicity, expansion, proliferation, persistence)",T cells,improves T cell function
same,effect on T cell exhaustion,T cells; chronic (long-term) stimulation,"reverse, delay, or prevent T cell exhaustion"
